In assay [1] the test system is serum levels of total IgE. Description: Total serum IgE by ELISA, OVA/ALUM sensitization and boost in BALB/c mice. It is filed as in vivo. The following applies: for IgE levels: THC- or LPI-pretreated B/c mice, OVA/Alum. As for the experimental part: (§1) In in vivo IgE-induction models using OVA/Alum or KLH/Ribi, the role of GPR55, in cannabinoid effects on antibody production has been investigated. BALB/c (B/c), C57BL/6 (B6), or B6 CB2 deficient (CB2^−/−) mice were pretreated with THC or L-α-lysophosphatidylinositol (LPI) prior to injections with OVA/Alum or KLH/Ribi, followed by boosting with same antigens. The mice were then bled on various days after boosting and total serum IgE was determined.
Mice were pretreated with SR2/Gp1a, Gp1a, or not pretreated, and 18 hrs later were sensitized with OVA/ALUM followed by a boost with same antigen. The sera were collected 6 days after the antigen boost injection and ELISAs were performed for IgE. Data represent sera from 4-8 mice/group+/−SEM. *=p≦0.05 from Normal; #=p≦0.05 from OVA/ALUM or SR2/OVA/ALUM.
For orientation: In an ELISA, binding on a coated surface is turned into a signal by an enzyme label.

For assay [2], the system named is serum levels of total IgE. Kind of assay: Total serum IgE by ELISA, OVA/ALUM sensitization and boost in C57BL/6 and CB2-/- mice. The class given is in vivo, C57BL/6 (B6) and CB2-/- mice. The settings on record: for serum levels of total IgE: THC pretreatment. Here is the method: FIG. 4 is a graph illustrating that serum levels of total IgE were increased with THC pretreatment over C57BL/6 (B6) mice; CB2 deficient mice (CB2^−/−) over B6; and THC pretreatment CB2^−/− over B6 and THC/B6. SR141716A (SR1; CB1 antagonist) pretreatment of CB2^−/− had little effect on total IgE levels. The mice were treated OVA/ALUM following a boost of same antigen. The sera were collected at Day 5-6 after the boost and ELISAs were performed. Data represent serum from individual mice (4-9 mice/group+/−SEM). *=p≦0.05 from Normal; #=p≦0.05 from OVA/ALUM; ##=p<0.05 from THC/OVA/ALUM
as §1

In assay [3] the test system is total serum IgE. Kind of assay: Total serum IgE, KLH/RIBI IgE-induction model in B6 and CB2-/- mice. The class given is in vivo, C57BL/6 (B6) and CB2-/- mice. The following applies: compared with OVA/ALUM. As for the experimental part: as §1
Assay [4] has as its system total serum IgE. Description: Total serum IgE, KLH/Ribi IgE-induction model in BALB/c mice. It is filed as in vivo. The following applies: THC-treated B/c mice. As for the experimental part: as §1

Entries after “also recorded” stand apart in the source; their conditions may differ.

Take `Cc1ccc2c(c1)Cc1c(C(=O)NN3CCCCC3)nn(-c3ccc(Cl)cc3Cl)c1-2` [Gp1a, N-(Piperidin-1-yl)-1-(2,4-dichlorophenyl)-1,4-dihydro-6-methylindeno[1,2-c]pyrazole-3-carboxamide]: in assay [1] (BALB/c mice, pretreated 18 hrs before OVA/ALUM, sera 6 days after boost), the “serum levels of total IgE” value is listed as “attenuates; also recorded: caused a decrease in IgE”.
As for `Cc1c(C(=O)NN2CCCCC2)nn(-c2ccc(Cl)cc2Cl)c1-c1ccc(Cl)cc1` [SR141716A], the IgE response result in assay [2] (B6 and CB2-/- mice, CB1 antagonist given prior to THC dosing) was “only slightly elevated”. Also, the “total IgE levels” value in assay [2] (CB2-/- mice, SR1 pretreatment, OVA/ALUM) is listed as “little effect”.
Take `Cc1ccc(Cn2nc(C(=O)N[C@@H]3C(C)(C)[C@@H]4CC[C@@]3(C)C4)cc2-c2ccc(Cl)c(C)c2)cc1` [SR144528, 5-(4-chloro-3-methylphenyl)-1-[(4-methylphenyl)methyl]-N-[(1S,2S,4R)-1,3,3-trimethylbicyclo[2.2.1]hept-2-yl]-1H-pyrazole-3-carboxamide]: in assay [1] (BALB/c mice, co-treatment with Gp1a (SR2/Gp1a), OVA/ALUM), the “effect on the Gp1a attenuation of serum total IgE” value is recorded as “reversed; also recorded: reverses the Gp1a effect”.
In the case of `CCCCCc1cc(O)c2c(c1)OC(C)(C)[C@@H]1CCC(C)=C[C@@H]21` [THC, Δ^9-tetrahydrocannabinol], the “serum levels of total IgE” value in assay [2] (C57BL/6 (B6) mice, OVA/ALUM, sera Day 5-6 after boost) is “increased”; in assay [2] (CB2-/- mice, OVA/ALUM, vs B6 and THC/B6), “increased; also recorded: augmented this effect”. The IgE levels entry in assay [1] is “elevated”; in the assay on total serum IgE [3], “increased IgE levels greater than OVA/ALUM”; with total serum IgE [4], “elevated”.
As for L-α-lysophosphatidylinositol [LPI], in assay [1], the IgE levels result is reported as “enhanced”.

Source of the values: patent US9289421B2, “Methods and compositions for reducing serum levels of immunoglobulin E (IgE)” (priority 2011, dated 2016).
